Results reported in US20120010075A1 (priority 2009, published 2012).

system: not given; test: not given; conditions: not given

| Compound | melting point [°C] |
| --- | --- |
| O=C(N/N=C/c1c(C(F)(F)F)ccc(Cl)c1O)c1cccc(Cl)c1 [Example 451] | 242 to 245 |
| O=C(N/N=C/c1c(C(F)(F)F)ccc(Cl)c1O)c1cccc([N+](=O)[O-])c1 [Example 453] | 277 to 279 |
| O=C(N/N=C/c1c(C(F)(F)F)ccc(Cl)c1O)c1ccc([N+](=O)[O-])cc1 [Example 454] | 305 to 307 |
| Cc1ccc(C(=O)N/N=C/c2c(C(F)(F)F)ccc(Cl)c2O)c(O)c1 [Example 457] | 258 to 260 |
| C/C(=N\NC(=O)c1ccc(Br)cc1)c1ccccc1O [Example 458] | 218 to 221 |
| COc1ccc(C(=O)N/N=C(\C)c2ccc(Cl)cc2O)cc1 [Example 459] | 262 to 263 |
| C/C(=N\NC(=O)c1ccc(Br)cc1)c1ccc(Cl)cc1O [Example 460] | 258 to 259 |
| C/C(=N\NC(=O)c1ccc(C(F)(F)F)cc1)c1ccc(Cl)cc1O [Example 461] | 244 to 245 |
| C/C(=N\NC(=O)c1ccccc1Br)c1ccc(Cl)cc1O [Example 462] | 187 to 188 |
| C/C(=N\NC(=O)c1ccccc1O)c1ccc(Cl)cc1O [Example 463] | 311 to 312 |
| COc1ccc(C(=O)N/N=C(\C)c2cccc(OC)c2O)cc1 [Example 464] | 140 to 141 |
| COc1cccc(/C(C)=N/NC(=O)c2ccc(Br)cc2)c1O [Example 465] | 176 to 177 |
| COc1cccc(/C(C)=N/NC(=O)c2ccc(C(F)(F)F)cc2)c1O [Example 466] | 175 to 176 |
| COc1cccc(/C(C)=N/NC(=O)c2ccccc2Br)c1O [Example 467] | 245 to 247 |
| COc1cccc(/C(C)=N/NC(=O)c2ccccc2O)c1O [Example 468] | 255 to 257 |
| COc1ccc(C(=O)N/N=C(\C)c2cc(Cl)cc(Cl)c2O)cc1 [Example 469] | 226 to 227 |
| C/C(=N\NC(=O)c1ccc(C(F)(F)F)cc1)c1cc(Cl)cc(Cl)c1O [Example 470] | 237 to 238 |
| C/C(=N\NC(=O)c1ccccc1O)c1cc(Cl)cc(Cl)c1O [Example 471] | 306 to 308 |
| COc1ccc(/C(C)=N/NC(=O)c2ccc(C(F)(F)F)cc2)c(O)c1 [Example 472] | 251 to 252 |
| COc1ccc(/C(C)=N/NC(=O)c2ccccc2O)c(O)c1 [Example 473] | 276 to 278 |
| O=C(N/N=C/c1cc(Cl)cc(Cl)c1O)c1ccc(Cl)cc1O [Example 474] | 276 to 279 |

system: Phytophthora infestans; test: not given; type: in vivo, Phytophthora infestans on tomato; conditions: hydrazone 50 ppm with 50 μM CuCl2.2H2O, applied 24 h before inoculation; assessed 7 days after inoculation; tomato late blight

| Compound | TLB % Control [%] |
| --- | --- |
| O=C(N/N=C/c1c(C(F)(F)F)ccc(Cl)c1O)c1cccc(Cl)c1 [Example 451] | 100.0 |
| O=C(N/N=C/c1c(C(F)(F)F)ccc(Cl)c1O)c1cccc([N+](=O)[O-])c1 [Example 453] | 100.0 |
| O=C(N/N=C/c1c(C(F)(F)F)ccc(Cl)c1O)c1ccc([N+](=O)[O-])cc1 [Example 454] | 100.0 |
| Cc1ccc(C(=O)N/N=C/c2c(C(F)(F)F)ccc(Cl)c2O)c(O)c1 [Example 457] | 100.0 |
| C/C(=N\NC(=O)c1ccc(Br)cc1)c1ccccc1O [Example 458] | 46.0 |
| COc1ccc(C(=O)N/N=C(\C)c2ccc(Cl)cc2O)cc1 [Example 459] | 20.0 |
| C/C(=N\NC(=O)c1ccc(Br)cc1)c1ccc(Cl)cc1O [Example 460] | 39.0 |
| C/C(=N\NC(=O)c1ccc(C(F)(F)F)cc1)c1ccc(Cl)cc1O [Example 461] | 54.0 |
| C/C(=N\NC(=O)c1ccccc1Br)c1ccc(Cl)cc1O [Example 462] | 86.0 |
| C/C(=N\NC(=O)c1ccccc1O)c1ccc(Cl)cc1O [Example 463] | 61.0 |
| COc1ccc(C(=O)N/N=C(\C)c2cccc(OC)c2O)cc1 [Example 464] | 93.0 |
| COc1cccc(/C(C)=N/NC(=O)c2ccc(Br)cc2)c1O [Example 465] | 93.0 |
| COc1cccc(/C(C)=N/NC(=O)c2ccc(C(F)(F)F)cc2)c1O [Example 466] | 69.0 |
| COc1cccc(/C(C)=N/NC(=O)c2ccccc2Br)c1O [Example 467] | 80.0 |
| COc1cccc(/C(C)=N/NC(=O)c2ccccc2O)c1O [Example 468] | 92.0 |
| COc1ccc(C(=O)N/N=C(\C)c2cc(Cl)cc(Cl)c2O)cc1 [Example 469] | 95.0 |
| C/C(=N\NC(=O)c1ccc(C(F)(F)F)cc1)c1cc(Cl)cc(Cl)c1O [Example 470] | 93.0 |
| C/C(=N\NC(=O)c1ccccc1O)c1cc(Cl)cc(Cl)c1O [Example 471] | 83.0 |
| COc1ccc(/C(C)=N/NC(=O)c2ccc(C(F)(F)F)cc2)c(O)c1 [Example 472] | 49.0 |
| COc1ccc(/C(C)=N/NC(=O)c2ccccc2O)c(O)c1 [Example 473] | 78.0 |
| O=C(N/N=C/c1cc(Cl)cc(Cl)c1O)c1ccc(Cl)cc1O [Example 474] | 100.0 |

system: Leptosphaeria nodorum (LEPTNO); test: In vitro fungitoxicity of hydrazones with and without copper towards Leptosphaeria nodorum (Example 26); type: cell-based; conditions: Parastagonospora nodorum, 72 h, copper-minus medium; test compound Concn. 0.05 μg/mL; 72 h at 25° C.; read-out: LEPTNO % Inhn. Minus Copper Observed

| Compound | inhibition of growth at 0.05 µg/mL [%] |
| --- | --- |
| O=C(N/N=C/c1c(C(F)(F)F)ccc(Cl)c1O)c1cccc(Cl)c1 [Example 451] | 4.6 |
| O=C(N/N=C/c1c(C(F)(F)F)ccc(Cl)c1O)c1cccc([N+](=O)[O-])c1 [Example 453] | 5.6 |
| O=C(N/N=C/c1c(C(F)(F)F)ccc(Cl)c1O)c1ccc([N+](=O)[O-])cc1 [Example 454] | 12.4 |
| Cc1ccc(C(=O)N/N=C/c2c(C(F)(F)F)ccc(Cl)c2O)c(O)c1 [Example 457] | 6.7 |
| C/C(=N\NC(=O)c1ccc(Br)cc1)c1ccccc1O [Example 458] | 3.7 |
| COc1ccc(C(=O)N/N=C(\C)c2ccc(Cl)cc2O)cc1 [Example 459] | 7.3 |
| C/C(=N\NC(=O)c1ccc(Br)cc1)c1ccc(Cl)cc1O [Example 460] | 0 |
| C/C(=N\NC(=O)c1ccc(C(F)(F)F)cc1)c1ccc(Cl)cc1O [Example 461] | 3.4 |
| C/C(=N\NC(=O)c1ccccc1Br)c1ccc(Cl)cc1O [Example 462] | 0 |
| C/C(=N\NC(=O)c1ccccc1O)c1ccc(Cl)cc1O [Example 463] | 5.1 |
| COc1ccc(C(=O)N/N=C(\C)c2cccc(OC)c2O)cc1 [Example 464] | 6.7 |
| COc1cccc(/C(C)=N/NC(=O)c2ccc(Br)cc2)c1O [Example 465] | 1.7 |
| COc1cccc(/C(C)=N/NC(=O)c2ccc(C(F)(F)F)cc2)c1O [Example 466] | 2.7 |
| COc1cccc(/C(C)=N/NC(=O)c2ccccc2Br)c1O [Example 467] | 0 |
| COc1cccc(/C(C)=N/NC(=O)c2ccccc2O)c1O [Example 468] | 6.2 |
| COc1ccc(C(=O)N/N=C(\C)c2cc(Cl)cc(Cl)c2O)cc1 [Example 469] | 1 |
| C/C(=N\NC(=O)c1ccc(C(F)(F)F)cc1)c1cc(Cl)cc(Cl)c1O [Example 470] | 4 |
| C/C(=N\NC(=O)c1ccccc1O)c1cc(Cl)cc(Cl)c1O [Example 471] | 7.9 |
| COc1ccc(/C(C)=N/NC(=O)c2ccc(C(F)(F)F)cc2)c(O)c1 [Example 472] | 0 |
| COc1ccc(/C(C)=N/NC(=O)c2ccccc2O)c(O)c1 [Example 473] | 0 |
| O=C(N/N=C/c1cc(Cl)cc(Cl)c1O)c1ccc(Cl)cc1O [Example 474] | 39.2 |

same assay, conditions: copper-plus medium (CuCl2 10 μM); test compound Concn. 0.05 μg/mL; 72 h at 25° C.

| Compound | LEPTNO % Inhn. Plus Copper Observed [%] |
| --- | --- |
| O=C(N/N=C/c1c(C(F)(F)F)ccc(Cl)c1O)c1cccc(Cl)c1 [Example 451] | 100.0 |
| O=C(N/N=C/c1c(C(F)(F)F)ccc(Cl)c1O)c1cccc([N+](=O)[O-])c1 [Example 453] | 100.0 |
| O=C(N/N=C/c1c(C(F)(F)F)ccc(Cl)c1O)c1ccc([N+](=O)[O-])cc1 [Example 454] | 100.0 |
| Cc1ccc(C(=O)N/N=C/c2c(C(F)(F)F)ccc(Cl)c2O)c(O)c1 [Example 457] | 100.0 |
| C/C(=N\NC(=O)c1ccc(Br)cc1)c1ccccc1O [Example 458] | 96.6 |
| COc1ccc(C(=O)N/N=C(\C)c2ccc(Cl)cc2O)cc1 [Example 459] | 96.9 |
| C/C(=N\NC(=O)c1ccc(Br)cc1)c1ccc(Cl)cc1O [Example 460] | 97.6 |
| C/C(=N\NC(=O)c1ccc(C(F)(F)F)cc1)c1ccc(Cl)cc1O [Example 461] | 96.7 |
| C/C(=N\NC(=O)c1ccccc1Br)c1ccc(Cl)cc1O [Example 462] | 95.0 |
| C/C(=N\NC(=O)c1ccccc1O)c1ccc(Cl)cc1O [Example 463] | 96.3 |
| COc1ccc(C(=O)N/N=C(\C)c2cccc(OC)c2O)cc1 [Example 464] | 94.8 |
| COc1cccc(/C(C)=N/NC(=O)c2ccc(Br)cc2)c1O [Example 465] | 96.5 |
| COc1cccc(/C(C)=N/NC(=O)c2ccc(C(F)(F)F)cc2)c1O [Example 466] | 97.9 |
| COc1cccc(/C(C)=N/NC(=O)c2ccccc2Br)c1O [Example 467] | 95.7 |
| COc1cccc(/C(C)=N/NC(=O)c2ccccc2O)c1O [Example 468] | 98.1 |
| COc1ccc(C(=O)N/N=C(\C)c2cc(Cl)cc(Cl)c2O)cc1 [Example 469] | 97.8 |
| C/C(=N\NC(=O)c1ccc(C(F)(F)F)cc1)c1cc(Cl)cc(Cl)c1O [Example 470] | 98.0 |
| C/C(=N\NC(=O)c1ccccc1O)c1cc(Cl)cc(Cl)c1O [Example 471] | 97.8 |
| COc1ccc(/C(C)=N/NC(=O)c2ccc(C(F)(F)F)cc2)c(O)c1 [Example 472] | 97.7 |
| COc1ccc(/C(C)=N/NC(=O)c2ccccc2O)c(O)c1 [Example 473] | 97.5 |
| O=C(N/N=C/c1cc(Cl)cc(Cl)c1O)c1ccc(Cl)cc1O [Example 474] | 97.6 |
